Reference: ChEMBL document CHEMBL1151558, “An efficient synthesis and biological activities of 19-nor-17-hydroxy-17-trifluoromethyl-4-estren-3-one and its analogs” (Bioorg Med Chem Lett, 1995)

What was measured:
Progesterone receptor = target: T1, Progesterone receptor (Rattus norvegicus, UniProt Q63449); test: Inhibition of [3H]R5020 binding to cytosolic progesterone receptor (PRc) of rat uterus
T1 sequence (Q63449 whole entry): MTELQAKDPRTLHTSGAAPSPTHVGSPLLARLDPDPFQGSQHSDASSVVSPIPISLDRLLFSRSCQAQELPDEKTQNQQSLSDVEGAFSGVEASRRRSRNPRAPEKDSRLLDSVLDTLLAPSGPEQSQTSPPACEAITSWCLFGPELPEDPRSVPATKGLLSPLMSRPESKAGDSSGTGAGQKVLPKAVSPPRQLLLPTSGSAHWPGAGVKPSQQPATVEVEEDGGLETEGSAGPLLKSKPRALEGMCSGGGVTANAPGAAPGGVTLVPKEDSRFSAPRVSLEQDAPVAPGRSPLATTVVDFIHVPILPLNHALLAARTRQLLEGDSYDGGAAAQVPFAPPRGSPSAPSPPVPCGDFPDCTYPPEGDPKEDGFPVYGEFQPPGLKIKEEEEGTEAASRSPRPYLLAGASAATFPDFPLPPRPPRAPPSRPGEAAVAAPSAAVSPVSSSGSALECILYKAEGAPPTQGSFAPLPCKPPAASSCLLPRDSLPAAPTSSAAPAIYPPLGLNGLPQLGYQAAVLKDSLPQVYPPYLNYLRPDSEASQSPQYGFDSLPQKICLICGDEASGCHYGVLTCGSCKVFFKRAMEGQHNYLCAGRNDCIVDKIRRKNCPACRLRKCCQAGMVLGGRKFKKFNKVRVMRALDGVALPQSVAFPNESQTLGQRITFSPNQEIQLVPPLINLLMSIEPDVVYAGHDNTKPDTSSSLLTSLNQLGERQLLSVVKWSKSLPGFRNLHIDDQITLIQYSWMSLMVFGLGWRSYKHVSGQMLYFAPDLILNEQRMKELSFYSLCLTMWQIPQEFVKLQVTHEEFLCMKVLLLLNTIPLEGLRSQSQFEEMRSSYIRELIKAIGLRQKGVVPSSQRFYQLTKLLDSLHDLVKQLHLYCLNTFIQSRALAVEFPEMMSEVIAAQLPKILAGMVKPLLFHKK

[1] = target: T2, Progesterone receptor (Rattus norvegicus) (UniProt Q63449); test: Binding affinity for cytosolic progesterone receptor (PRc) of rat uterus compared to RU-486
T2 sequence (whole entry): T1 sequence (Q63449 whole entry)

Compound | IC50 (Progesterone receptor) [nM] | relative binding affinity (RBA) [1]
C[C@]12CCC3=C4CCC(=O)C=C4CCC3C1CC[C@@]2(O)C(F)(F)F (some centres not stated) | 4.5 | 77.8
C[C@]12CCC3C(CCC4=CC(=O)CC[C@@H]43)C1CC[C@@]2(O)C(F)(F)F (some centres not stated) | 1.2 | 292
CC#C[C@]1(O)CC[C@H]2[C@@H]3CCC4=CC(=O)CCC4=C3[C@@H](c3ccc(N(C)C)cc3)C[C@@]21C | – | 100
C[C@]12C=CC3=C4CCC(=O)C=C4CCC3C1CC[C@@]2(O)C(F)(F)F (some centres not stated) | 9 | 38.9
